Results published in publication PMC6418145 (Scientific Reports, 2019).

Tests used:
[1] = target: T1, D1 dopamine receptor (Homo sapiens, UniProt P21728); test: Off-target radioligand binding; details: 10 μM compound
T1 construct: expressed in transfected cells; host or cells: HEK-293 or CHO

[2] = target: T2, H1 histamine receptor (Homo sapiens, UniProt P35367); test: Off-target radioligand binding
T2 construct: expressed in transfected cells; host or cells: HEK-293 or CHO

[3] = target: Lck kinase (Homo sapiens, UniProt P06239); test: Off-target enzyme assay; type: biochemical; details: 10 μM compound, not shown
Lck kinase, sequence (P06239 whole entry): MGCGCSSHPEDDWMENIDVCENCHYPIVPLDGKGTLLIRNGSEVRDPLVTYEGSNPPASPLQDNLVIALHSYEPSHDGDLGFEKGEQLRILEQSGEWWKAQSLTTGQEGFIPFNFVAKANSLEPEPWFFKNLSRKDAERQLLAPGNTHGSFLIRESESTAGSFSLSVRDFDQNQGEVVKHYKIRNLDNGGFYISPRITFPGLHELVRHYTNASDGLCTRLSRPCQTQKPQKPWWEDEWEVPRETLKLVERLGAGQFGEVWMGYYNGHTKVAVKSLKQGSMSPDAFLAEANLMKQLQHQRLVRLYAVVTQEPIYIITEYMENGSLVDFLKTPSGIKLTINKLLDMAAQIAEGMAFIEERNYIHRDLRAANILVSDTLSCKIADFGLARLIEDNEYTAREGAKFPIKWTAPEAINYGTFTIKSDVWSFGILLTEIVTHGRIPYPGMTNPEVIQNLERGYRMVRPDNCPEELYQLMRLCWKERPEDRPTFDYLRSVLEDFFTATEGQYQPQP

[4] = test system: hM3Dq; set-up: method as in PMID 25587888; details: FLIPR assay; cited from earlier work
[5] = target: PDE3A (Homo sapiens, UniProt Q14432); test: Off-target enzyme assay; type: biochemical; details: 10 μM compound, not shown
PDE3A, sequence (Q14432 whole entry, species assumed): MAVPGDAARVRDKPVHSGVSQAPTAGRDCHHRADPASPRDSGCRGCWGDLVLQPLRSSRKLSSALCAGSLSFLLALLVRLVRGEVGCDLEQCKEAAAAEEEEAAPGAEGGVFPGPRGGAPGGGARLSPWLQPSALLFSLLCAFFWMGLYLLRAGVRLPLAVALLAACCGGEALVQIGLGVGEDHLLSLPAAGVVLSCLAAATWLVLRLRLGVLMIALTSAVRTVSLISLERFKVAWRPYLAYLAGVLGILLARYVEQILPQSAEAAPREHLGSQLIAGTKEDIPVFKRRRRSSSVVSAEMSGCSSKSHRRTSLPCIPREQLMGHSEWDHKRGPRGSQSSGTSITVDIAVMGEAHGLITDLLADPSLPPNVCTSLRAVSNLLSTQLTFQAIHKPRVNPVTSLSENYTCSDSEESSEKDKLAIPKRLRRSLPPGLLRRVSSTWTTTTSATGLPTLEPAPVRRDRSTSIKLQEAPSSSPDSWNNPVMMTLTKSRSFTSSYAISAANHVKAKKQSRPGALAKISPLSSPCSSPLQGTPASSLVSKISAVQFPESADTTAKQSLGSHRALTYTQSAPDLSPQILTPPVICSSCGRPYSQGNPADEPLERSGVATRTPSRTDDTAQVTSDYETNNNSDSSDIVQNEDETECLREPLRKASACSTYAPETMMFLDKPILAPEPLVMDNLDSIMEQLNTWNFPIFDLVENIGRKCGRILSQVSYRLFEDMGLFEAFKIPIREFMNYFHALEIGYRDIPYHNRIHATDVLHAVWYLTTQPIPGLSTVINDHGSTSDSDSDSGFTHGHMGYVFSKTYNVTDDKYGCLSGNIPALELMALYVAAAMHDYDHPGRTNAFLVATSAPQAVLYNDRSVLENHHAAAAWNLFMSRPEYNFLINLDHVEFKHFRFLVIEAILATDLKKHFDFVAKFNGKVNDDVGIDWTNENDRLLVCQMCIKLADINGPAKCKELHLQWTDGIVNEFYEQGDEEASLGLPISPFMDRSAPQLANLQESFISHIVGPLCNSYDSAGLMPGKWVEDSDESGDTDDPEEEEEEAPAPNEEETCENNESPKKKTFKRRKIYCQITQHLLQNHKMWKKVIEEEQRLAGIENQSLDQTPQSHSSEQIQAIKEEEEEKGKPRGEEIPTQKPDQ

[6] = target: T3, 5-HT1A serotonin receptor (Homo sapiens, UniProt P08908); test: Off-target radioligand binding; details: 10 μM compound
T3 construct: expressed in transfected cells; host or cells: HEK-293 or CHO
T3 sequence (P08908 whole entry): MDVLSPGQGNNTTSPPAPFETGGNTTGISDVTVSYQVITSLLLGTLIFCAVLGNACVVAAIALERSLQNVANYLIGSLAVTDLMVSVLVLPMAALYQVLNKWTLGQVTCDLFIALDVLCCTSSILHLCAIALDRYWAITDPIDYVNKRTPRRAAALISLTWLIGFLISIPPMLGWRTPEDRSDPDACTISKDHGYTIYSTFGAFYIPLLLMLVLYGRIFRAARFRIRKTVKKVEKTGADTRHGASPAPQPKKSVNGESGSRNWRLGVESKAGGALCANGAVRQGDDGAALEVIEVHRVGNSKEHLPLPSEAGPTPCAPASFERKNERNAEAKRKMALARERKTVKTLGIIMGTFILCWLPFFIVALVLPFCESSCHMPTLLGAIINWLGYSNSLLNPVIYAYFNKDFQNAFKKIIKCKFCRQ

[7] = target: COX2 (Homo sapiens, UniProt P35354); test: Off-target enzyme assay; type: biochemical; details: 10 μM compound, not shown
COX2, sequence (P35354 18-604): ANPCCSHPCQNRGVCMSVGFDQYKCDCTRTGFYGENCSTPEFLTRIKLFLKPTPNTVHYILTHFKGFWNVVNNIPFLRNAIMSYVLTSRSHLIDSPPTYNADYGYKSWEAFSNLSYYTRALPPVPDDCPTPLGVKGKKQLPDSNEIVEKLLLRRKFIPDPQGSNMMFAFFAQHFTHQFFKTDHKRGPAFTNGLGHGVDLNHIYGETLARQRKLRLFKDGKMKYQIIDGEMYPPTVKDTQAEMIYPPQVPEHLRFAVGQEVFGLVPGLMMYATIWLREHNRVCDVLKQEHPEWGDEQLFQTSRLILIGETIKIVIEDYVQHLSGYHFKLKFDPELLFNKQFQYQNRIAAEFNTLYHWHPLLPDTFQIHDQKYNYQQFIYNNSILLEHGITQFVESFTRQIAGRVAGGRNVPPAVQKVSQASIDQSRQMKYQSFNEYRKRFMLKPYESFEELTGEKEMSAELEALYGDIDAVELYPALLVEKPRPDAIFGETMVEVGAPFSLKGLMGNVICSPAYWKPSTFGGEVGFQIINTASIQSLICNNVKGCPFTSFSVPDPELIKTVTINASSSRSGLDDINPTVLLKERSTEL

[8] = target: T4, M2 muscarinic receptor (Homo sapiens, UniProt P08172); test: Off-target radioligand binding; details: 10 μM compound
T4 construct: expressed in transfected cells; host or cells: HEK-293 or CHO
T4 sequence (P08172 whole entry): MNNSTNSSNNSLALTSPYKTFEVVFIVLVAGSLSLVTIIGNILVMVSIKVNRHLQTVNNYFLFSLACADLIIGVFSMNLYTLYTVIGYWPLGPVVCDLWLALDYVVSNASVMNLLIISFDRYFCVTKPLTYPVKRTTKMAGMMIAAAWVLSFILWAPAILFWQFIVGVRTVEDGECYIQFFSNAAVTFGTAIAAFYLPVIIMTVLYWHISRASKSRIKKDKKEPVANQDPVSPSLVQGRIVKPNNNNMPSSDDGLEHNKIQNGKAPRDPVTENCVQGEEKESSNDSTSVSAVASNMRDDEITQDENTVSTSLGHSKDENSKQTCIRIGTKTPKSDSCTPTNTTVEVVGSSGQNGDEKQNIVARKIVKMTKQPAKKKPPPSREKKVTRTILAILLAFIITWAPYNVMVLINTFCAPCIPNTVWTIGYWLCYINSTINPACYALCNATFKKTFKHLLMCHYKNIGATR

T2 sequence (P35367 whole entry): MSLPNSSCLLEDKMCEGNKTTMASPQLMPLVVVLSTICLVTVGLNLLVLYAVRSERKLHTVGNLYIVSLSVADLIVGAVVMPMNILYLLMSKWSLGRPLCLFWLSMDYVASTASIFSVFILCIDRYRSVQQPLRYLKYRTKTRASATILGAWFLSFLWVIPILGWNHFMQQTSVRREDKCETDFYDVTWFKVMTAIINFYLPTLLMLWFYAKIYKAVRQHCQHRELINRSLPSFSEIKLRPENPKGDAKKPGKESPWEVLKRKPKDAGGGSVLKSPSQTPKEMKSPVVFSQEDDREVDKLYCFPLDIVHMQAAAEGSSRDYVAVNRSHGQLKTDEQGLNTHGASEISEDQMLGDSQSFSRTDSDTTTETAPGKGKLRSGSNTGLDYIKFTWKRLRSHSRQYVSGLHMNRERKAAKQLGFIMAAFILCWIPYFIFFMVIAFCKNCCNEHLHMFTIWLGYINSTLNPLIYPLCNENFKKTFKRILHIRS
T1 sequence (P21728 whole entry): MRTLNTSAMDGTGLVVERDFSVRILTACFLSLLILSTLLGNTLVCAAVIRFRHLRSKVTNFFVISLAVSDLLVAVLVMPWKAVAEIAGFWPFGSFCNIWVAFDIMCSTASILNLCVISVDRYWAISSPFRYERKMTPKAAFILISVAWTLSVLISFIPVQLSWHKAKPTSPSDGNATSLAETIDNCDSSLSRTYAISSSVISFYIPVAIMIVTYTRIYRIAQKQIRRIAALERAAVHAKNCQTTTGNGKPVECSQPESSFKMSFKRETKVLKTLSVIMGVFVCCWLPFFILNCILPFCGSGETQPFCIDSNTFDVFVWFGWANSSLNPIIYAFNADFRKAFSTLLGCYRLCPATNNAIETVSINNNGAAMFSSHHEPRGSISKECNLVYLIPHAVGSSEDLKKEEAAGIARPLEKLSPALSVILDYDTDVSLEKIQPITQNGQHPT

## C[N+]1([O-])CCN(C2=Nc3cc(Cl)ccc3Nc3ccccc32)CC1 [CNO, clozapine-N-oxide]
[1]
  competitive inhibition of ligand binding: over 50%
[2]; 10 μM compound
  competitive inhibition of ligand binding: over 50%
[2]; bound stated in discussion
  Ki: < 100 nM
[3]
  inhibition: < 20%
[4]
  EC50: 6 nM
[5]
  inhibition: < 20%
[6]
  competitive inhibition of ligand binding: over 50%
[7]
  inhibition: < 20%
[8]
  competitive inhibition of ligand binding: over 50%
